# Assay results taken from ChEMBL document CHEMBL5696442, “Discovery of type II inhibitors of TGFβ-activated kinase 1 (TAK1) and mitogen-activated protein kinase kinase kinase kinase 2 (MAP4K2)” (J Med Chem, 2015).
# What was measured:
# [1] = biological target: T1, Serine/threonine-protein kinase TAO3 (Homo sapiens) (UniProt Q9H2K8); experiment: Inhibition of TAO3 Lys2 labeling site in human A-375 cells at 5 uM by KiNativ Profiling analysis relative to control; type: cell-based
# T1 sequence (whole entry): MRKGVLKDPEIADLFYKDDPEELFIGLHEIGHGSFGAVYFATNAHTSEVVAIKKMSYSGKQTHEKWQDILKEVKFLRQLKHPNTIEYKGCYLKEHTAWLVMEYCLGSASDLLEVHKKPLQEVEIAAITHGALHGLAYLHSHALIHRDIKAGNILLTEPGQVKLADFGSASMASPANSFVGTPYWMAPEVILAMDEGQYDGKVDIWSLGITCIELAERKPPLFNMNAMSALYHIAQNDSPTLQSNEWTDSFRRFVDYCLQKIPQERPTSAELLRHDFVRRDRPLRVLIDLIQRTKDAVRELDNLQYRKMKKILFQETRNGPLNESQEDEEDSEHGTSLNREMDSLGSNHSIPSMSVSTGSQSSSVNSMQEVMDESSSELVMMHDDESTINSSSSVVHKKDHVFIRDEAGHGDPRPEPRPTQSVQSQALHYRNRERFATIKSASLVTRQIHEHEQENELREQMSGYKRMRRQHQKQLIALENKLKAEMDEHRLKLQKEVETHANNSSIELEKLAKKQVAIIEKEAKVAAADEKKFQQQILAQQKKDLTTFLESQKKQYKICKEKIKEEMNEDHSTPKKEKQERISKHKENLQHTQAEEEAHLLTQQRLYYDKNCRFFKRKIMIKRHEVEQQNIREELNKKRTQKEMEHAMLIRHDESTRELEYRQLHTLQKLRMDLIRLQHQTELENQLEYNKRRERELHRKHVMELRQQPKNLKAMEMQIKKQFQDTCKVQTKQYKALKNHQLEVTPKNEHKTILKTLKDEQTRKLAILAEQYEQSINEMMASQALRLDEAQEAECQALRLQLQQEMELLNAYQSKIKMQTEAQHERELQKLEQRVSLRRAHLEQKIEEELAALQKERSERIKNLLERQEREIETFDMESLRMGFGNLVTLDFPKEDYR
# [2] = biological target: Citron Rho-interacting kinase (Homo sapiens) (UniProt O14578); experiment: Inhibition of CIT (unknown origin) at 1 uM by Ambit Kinomescan binding assay relative to control
# [3] = biological target: Cyclin-dependent kinase 1 (Homo sapiens) (UniProt P06493); experiment: Inhibition of CDC2 Lys2 labeling site harbouring DLKPQNLLIDDKGTIK in human A-375 cells at 5 uM by KiNativ Profiling analysis relative to control; type: cell-based
# [4] = biological target: T2, Serine/threonine-protein kinase LATS2 (Homo sapiens) (UniProt Q9NRM7); experiment: Inhibition of LATS2 Lys2 labeling site in human A-375 cells at 5 uM by KiNativ Profiling analysis relative to control; type: cell-based
# T2 sequence (whole entry): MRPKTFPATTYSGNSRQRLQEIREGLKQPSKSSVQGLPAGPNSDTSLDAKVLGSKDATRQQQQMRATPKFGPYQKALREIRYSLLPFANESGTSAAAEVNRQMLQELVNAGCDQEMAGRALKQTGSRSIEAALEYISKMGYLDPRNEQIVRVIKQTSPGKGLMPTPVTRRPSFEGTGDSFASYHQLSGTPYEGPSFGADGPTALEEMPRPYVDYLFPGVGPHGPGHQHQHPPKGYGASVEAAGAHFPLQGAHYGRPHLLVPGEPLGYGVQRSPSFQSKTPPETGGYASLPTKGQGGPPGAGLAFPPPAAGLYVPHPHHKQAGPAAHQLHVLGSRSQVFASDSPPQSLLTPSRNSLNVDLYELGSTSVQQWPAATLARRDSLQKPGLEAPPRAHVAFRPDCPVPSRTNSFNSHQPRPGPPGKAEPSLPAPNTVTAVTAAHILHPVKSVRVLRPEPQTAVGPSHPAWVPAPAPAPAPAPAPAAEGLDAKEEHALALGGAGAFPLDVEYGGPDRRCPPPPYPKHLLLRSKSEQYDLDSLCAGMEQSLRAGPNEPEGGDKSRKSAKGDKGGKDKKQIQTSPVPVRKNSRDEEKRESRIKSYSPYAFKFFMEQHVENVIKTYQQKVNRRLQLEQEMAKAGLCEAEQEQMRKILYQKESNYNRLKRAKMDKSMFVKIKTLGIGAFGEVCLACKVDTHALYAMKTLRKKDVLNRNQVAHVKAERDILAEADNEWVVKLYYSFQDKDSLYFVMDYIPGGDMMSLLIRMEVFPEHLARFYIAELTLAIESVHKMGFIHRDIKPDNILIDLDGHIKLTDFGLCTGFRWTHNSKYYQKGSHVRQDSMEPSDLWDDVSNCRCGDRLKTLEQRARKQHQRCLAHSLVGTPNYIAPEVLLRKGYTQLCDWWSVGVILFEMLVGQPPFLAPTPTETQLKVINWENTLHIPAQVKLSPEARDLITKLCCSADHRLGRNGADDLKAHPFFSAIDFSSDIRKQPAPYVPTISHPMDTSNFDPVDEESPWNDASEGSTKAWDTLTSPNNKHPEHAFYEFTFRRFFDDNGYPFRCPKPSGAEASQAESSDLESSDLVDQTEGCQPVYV
# [5] = biological target: Tyrosine-protein kinase CSK (Homo sapiens, UniProt P41240); experiment: Inhibition of CSK ACT labeling site harbouring VSDFGLTKEASSTQDTGK in human A-375 cells at 5 uM by KiNativ Profiling analysis relative to control; type: cell-based
# [6] = biological target: DNA-PK/Ku70/Ku85 (Homo sapiens) (UniProt P78527+P12956+P13010); experiment: Inhibition of DNAPK ATP labeling site harbouring KGGSWIQEINVAEKNWYPR in human A-375 cells at 0.5 uM by KiNativ Profiling analysis relative to control; type: cell-based
# [7] = biological target: Proto-oncogene tyrosine-protein kinase Src (Homo sapiens, UniProt P12931); experiment: Inhibition of SRC K1 labeling site in human Huh-7 cells at 10 uM by KiNativ Profiling analysis relative to control; type: cell-based
# [8] = biological target: Dual specificity mitogen-activated protein kinase kinase 2 (Homo sapiens) (UniProt P36507); experiment: Inhibition of MAP2K2 Lys1 labeling site in human A-375 cells at 5 uM by KiNativ Profiling analysis relative to control; type: cell-based
# [9] = biological target: Dual specificity mitogen-activated protein kinase kinase 2 (Homo sapiens) (UniProt P36507); experiment: Inhibition of MAP2K2 Lys2 labeling site in human Huh-7 cell lysate at 1 uM by KiNativ Profiling analysis relative to control; type: subcellular
# Sequence of Dual specificity mitogen-activated protein kinase kinase 2 (Homo sapiens) (P36507 whole entry): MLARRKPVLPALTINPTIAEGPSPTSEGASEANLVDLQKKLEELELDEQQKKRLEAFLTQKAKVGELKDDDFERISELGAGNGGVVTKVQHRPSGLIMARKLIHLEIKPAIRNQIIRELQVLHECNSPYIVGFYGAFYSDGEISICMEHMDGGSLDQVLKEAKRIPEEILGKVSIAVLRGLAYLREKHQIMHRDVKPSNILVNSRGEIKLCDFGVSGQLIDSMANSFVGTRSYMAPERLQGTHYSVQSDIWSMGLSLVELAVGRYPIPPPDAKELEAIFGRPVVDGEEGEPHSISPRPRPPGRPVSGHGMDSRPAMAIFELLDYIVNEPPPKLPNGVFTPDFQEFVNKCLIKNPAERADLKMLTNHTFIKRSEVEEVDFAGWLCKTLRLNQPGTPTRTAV
# Sequence of Cyclin-dependent kinase 1 (Homo sapiens) (P06493 whole entry, looked up): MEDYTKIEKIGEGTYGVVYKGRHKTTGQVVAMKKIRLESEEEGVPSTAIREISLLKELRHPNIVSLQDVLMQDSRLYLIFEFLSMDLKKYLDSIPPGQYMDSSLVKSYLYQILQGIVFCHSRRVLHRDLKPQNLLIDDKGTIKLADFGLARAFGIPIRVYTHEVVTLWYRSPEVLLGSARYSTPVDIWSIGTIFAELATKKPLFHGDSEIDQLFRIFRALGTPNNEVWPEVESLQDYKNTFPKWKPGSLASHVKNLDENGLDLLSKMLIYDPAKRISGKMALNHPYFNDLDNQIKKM
# Sequence of Citron Rho-interacting kinase (Homo sapiens) (O14578 whole entry): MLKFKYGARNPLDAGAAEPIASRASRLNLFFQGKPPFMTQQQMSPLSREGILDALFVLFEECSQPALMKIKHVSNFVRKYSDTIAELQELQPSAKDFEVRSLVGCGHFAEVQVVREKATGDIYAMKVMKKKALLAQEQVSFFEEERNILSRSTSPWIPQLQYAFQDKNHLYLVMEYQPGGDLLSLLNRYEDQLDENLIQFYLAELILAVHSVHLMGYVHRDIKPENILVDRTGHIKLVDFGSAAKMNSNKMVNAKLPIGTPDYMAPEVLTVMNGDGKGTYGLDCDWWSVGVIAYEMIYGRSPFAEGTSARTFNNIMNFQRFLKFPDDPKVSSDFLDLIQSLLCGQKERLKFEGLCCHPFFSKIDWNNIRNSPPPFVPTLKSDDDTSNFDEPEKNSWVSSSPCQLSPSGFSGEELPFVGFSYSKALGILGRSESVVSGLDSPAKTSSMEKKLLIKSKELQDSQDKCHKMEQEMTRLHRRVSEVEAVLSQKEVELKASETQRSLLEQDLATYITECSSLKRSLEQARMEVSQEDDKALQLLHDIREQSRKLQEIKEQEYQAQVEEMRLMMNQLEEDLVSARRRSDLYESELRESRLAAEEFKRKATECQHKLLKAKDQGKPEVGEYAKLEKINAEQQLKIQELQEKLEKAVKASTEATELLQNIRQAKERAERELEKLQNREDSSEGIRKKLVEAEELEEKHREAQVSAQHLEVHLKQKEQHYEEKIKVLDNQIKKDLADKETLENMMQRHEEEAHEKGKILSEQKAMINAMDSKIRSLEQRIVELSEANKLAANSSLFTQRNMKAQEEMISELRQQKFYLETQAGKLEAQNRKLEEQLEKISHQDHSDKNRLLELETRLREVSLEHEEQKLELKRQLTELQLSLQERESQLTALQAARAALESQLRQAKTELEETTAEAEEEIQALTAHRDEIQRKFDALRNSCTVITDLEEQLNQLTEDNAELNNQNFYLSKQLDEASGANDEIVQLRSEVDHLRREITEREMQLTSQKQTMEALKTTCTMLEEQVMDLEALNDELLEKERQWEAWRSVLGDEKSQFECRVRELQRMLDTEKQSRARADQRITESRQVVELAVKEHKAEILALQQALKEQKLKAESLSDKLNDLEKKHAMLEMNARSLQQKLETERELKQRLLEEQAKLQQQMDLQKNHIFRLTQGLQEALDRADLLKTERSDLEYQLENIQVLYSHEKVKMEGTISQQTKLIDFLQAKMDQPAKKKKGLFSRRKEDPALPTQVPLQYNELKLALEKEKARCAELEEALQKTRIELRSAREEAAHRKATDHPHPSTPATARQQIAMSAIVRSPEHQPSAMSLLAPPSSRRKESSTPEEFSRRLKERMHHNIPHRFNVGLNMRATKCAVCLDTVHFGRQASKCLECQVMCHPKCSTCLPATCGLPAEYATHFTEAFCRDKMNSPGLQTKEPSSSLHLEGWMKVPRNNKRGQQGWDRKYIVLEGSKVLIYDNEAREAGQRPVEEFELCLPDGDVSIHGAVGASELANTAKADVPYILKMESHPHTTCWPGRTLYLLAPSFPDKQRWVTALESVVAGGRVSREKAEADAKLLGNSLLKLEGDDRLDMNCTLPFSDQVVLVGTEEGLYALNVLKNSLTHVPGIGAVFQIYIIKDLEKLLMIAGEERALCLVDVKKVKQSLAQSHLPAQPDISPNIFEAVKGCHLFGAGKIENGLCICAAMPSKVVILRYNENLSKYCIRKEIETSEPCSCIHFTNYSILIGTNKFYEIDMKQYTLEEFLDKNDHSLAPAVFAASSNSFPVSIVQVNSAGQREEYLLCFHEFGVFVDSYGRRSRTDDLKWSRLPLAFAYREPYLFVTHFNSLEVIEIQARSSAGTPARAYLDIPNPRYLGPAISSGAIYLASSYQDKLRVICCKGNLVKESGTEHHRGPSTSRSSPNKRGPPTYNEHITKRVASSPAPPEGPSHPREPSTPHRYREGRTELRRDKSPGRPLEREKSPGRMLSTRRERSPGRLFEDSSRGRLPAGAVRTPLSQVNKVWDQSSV
# Sequence of Proto-oncogene tyrosine-protein kinase Src (P12931 2-536 limits assumed): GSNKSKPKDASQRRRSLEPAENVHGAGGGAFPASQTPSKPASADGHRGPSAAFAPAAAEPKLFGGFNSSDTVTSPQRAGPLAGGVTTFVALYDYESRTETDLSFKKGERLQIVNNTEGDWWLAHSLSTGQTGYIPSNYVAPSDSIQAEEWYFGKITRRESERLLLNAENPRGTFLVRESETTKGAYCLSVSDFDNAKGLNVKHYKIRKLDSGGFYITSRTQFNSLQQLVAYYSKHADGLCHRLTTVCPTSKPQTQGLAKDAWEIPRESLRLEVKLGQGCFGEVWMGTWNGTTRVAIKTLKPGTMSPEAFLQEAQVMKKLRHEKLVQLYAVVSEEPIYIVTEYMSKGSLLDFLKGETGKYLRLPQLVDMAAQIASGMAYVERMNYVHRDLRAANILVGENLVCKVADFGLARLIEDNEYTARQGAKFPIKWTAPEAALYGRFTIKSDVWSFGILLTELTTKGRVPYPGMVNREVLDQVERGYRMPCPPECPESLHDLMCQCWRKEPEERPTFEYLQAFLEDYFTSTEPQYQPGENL
# Sequence of Tyrosine-protein kinase CSK (P41240 2-450 limits assumed): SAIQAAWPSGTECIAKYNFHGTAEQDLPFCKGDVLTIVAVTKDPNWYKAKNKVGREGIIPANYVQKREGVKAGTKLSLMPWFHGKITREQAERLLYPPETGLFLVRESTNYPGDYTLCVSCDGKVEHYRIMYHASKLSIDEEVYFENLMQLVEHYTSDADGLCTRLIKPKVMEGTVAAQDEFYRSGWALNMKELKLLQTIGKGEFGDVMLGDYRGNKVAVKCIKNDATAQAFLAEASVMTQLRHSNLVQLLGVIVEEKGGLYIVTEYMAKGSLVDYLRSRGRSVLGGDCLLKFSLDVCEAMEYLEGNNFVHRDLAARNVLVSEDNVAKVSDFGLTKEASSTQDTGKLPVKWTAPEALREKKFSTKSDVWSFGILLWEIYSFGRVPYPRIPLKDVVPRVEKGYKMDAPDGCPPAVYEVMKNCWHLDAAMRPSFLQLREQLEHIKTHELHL
compound,measurement,setting,value
CCN1CCN(Cc2ccc(NC(=O)c3ccc(C)c(/C=C/c4cnc5[nH]ccc5c4OC)c3)cc2C(F)(F)F)CC1,inhibition,[1],66.2%
same,inhibition,[2],4.6%
same,inhibition,[3],-6.1%
CCN1CCN(Cc2ccc(NC(=O)c3ccc(C)c(Oc4ccnc5[nH]ccc45)c3)cc2C(F)(F)F)CC1,inhibition,[4],5.5%
same,inhibition,[5],79%
same,inhibition,[6],13.7%
same,inhibition,[7],50.1%
same,inhibition,[8],1.3%
CNc1cc(Oc2cc(C(=O)Nc3cc(N4CCN(C)CC4)cc(C(F)(F)F)c3)ccc2C)ncn1,inhibition,[9],15.6%
